# Measurements published in patent publication US5045543A, “5-amino or substituted amino 1,2,3-triazoles useful as antimetastatic agents” (Merck & Co., Inc., priority 1989, dated 1991).
# How the values were obtained:
# [1] = tested on: PMT-6 fibroscaroma tumors; experiment: Antimetastatic activity against PMT-6 fibrosarcoma tumors in mice (metastases in lung, primary tumor weight); format: in vivo, Black Charles River female mice (C57BL-6j); details: for range of primary tumor weights: control 3.1-8.4 g; for average weight of the primary tumors: mice surviving >17 days, control 6.0 g; for Number of Metastases, size 0.01-0.1 mm: control 24; for Number of Metastases, size <0.01 mm: control 102; for Number of Metastases, size >0.01 mm: size range >0.01 mm (so in the source)
# Description: Black Charles River female mice (C57BL-6j) were injected in the flank muscle on day 1 with a cell suspension obtained from mincing PMT-6 fibroscaroma tumors. This highly metastatic tumor produces a large number of metastases in the lung during development of the primary tumor, so that the efficacy of potential antimetastatic agents can be contrasted with their ability to inhibit primary tumor growth in the same model. The mice were in 4 groups of 6 and were dosed daily with a 0.5% methylcellulose suspension of 5-amino-1-(4-[4-chlorobenzoyl]-3,5-dichlorobenzyl)-1,2,3-triazole-4-carboxamide, the active agent, given by gavage. Fresh drug suspensions were prepared daily. The doses, in 250 μL, were 0, 100, 250, and 500 mg/kg.
# The average weights of the primary tumors retrieved from mice who survived longer than 17 days were: Control 6.0 g. (3.1-8.4 g); 100 mg/kg, 2.9 g. (2.1-5.6 g.); 250 mg/kg, 3.0 g (1.3-4.6 g.); and 500 mg/kg, 3.3 g. (2.0-6.5 g.).
# The lungs of the mice were sectioned at intervals throughout the entire lung after fixing in 10% formalin, and the sections stained with H&E. The metastases found ranged from micrometases of just a few cells to enormous ones that could be easily seen without a microscope.
# [2] = tested on: intact pig skin; experiment: Labelled thymidine incorporation into intact pig skin; details: in vivo
# [3] = tested on: macrophages; experiment: LTC4 and PGE2 production and lysosomal enzyme release in macrophages; format: cell-based; details: 1 μg/ml
# [4] = tested on: Normal Human Epidermal Keratinocytes (NHEK); experiment: Inhibition of growth of Normal Human Epidermal Keratinocytes (NHEK); format: cell-based; details: for inhibition at 0.5 µg/mL / inhibition at 1 µg/mL / inhibition at 2 µg/mL: Homo sapiens, NHEK
# Description: The inhibition of PRPP biosynthesis by Compound A and analogs supported the claimed use of the compounds as antiproliferative agents, since this inhibition should prevent all de novo and salvage biosynthesis of purine and pyrimidine nucleotides. […] The data from NHEK's is particularly important since it is the overproliferation of these cells that occurs in psoriasis.
# In these experiments Murine keratinocyte transformed cell line PAPp26 was cultured in Dulbecco's modified Eagle's medium with 10% fetal calf serum at 37° C., 5% CO2. Each well of a 96 well plate was seeded with 2000 cells in 200 μl of each drug dilution in duplicate. A plate was stopped and fixed for each time point, stained with Giemsa and then read in a Titertek plate reader at 650 nm, and the absorbances were calibrated with known cell numbers on control plates. NHEK's were obtained from Clonetics Corporation at the secondary stage. Antiproliferative assays were done as for the murine keratinocytes. Media (KGM) without serum was supplied by Clonetics also. Normal Human Fibroblasts and MDBK cells were grown under the same conditions except that MDBK cells were grown at 41° C.
# [5] = tested on: 5-lipoxygenase; experiment: Direct inhibition of 5-lipoxygenase; format: biochemical
# [6] = tested on: keratinocyte proliferation; experiment: Keratinocyte proliferation measured by metaphase arrest with colchicine; format: in vivo, pig
# [7] = tested on: Maden Darby Bovine Kidney (MDBK) cells; experiment: 3H-Hypoxanthine uptake (incorporation) into MDBK cells; format: cell-based; details: 1.0 μg/ml; for inhibition at 1 µg/mL: Bos taurus, MDBK
# Description: Compound A and analogs are capable of inhibiting nucleotide biosynthesis in a variety of mammalian cell types.
# Confluent cells were incubated in Eagles Minimal Essential media for 2.5 hours, then incubated with Phosphate buffered saline +Ca +Mg for 30 minutes, and then they were incubated with or without 1 μg/ml Compound A for 15 minutes. Media containing 100 μM 8-^3 H-hypoxanthine with or without drug was incubated for the time shown with the cells after which they were quenched by immersion in ice cold buffer. The DPM measurements were made on aliquots of neutralized perchloric acid supernatants.
smiles,measurement,setting,value
"NC(=O)c1nnn(Cc2cc(Cl)c(C(=O)c3ccc(Cl)cc3)c(Cl)c2)c1N [Compound A, 5-amino-1-(4-(4-chlorobenzoyl)-3,5-dichlorobenzyl)-1,2,3-triazole-4-carboxamide]",range of primary tumor weights,[1]; 100 mg/kg by gavage daily,2.1 to 5.6 g
same,average weight of the primary tumors,[1]; 100 mg/kg by gavage daily,2.9 g
same,range of primary tumor weights,[1]; 250 mg/kg by gavage daily,1.3 to 4.6 g
same,average weight of the primary tumors,[1]; 250 mg/kg by gavage daily,3.0 g
same,range of primary tumor weights,[1]; 500 mg/kg by gavage daily,2.0 to 6.5 g
same,average weight of the primary tumors,[1]; 500 mg/kg by gavage daily,3.3 g
same,effect on the primary tumor,"[1]; 100, 250, 500 mg/kg by gavage",there may be a small effect of the drug on the primary tumor
same,effect on number of lung metastases,[1]; at even the lowest dose (100 mg/kg/d oral),a large drop in the number of metastases at even the lowest dose
same,antimetastatic activity,"[1]; mouse, in vivo",has exhibited such antimetastatic activity
same,"Number of Metastases, size 0.01-0.1 mm",[1]; oral 100 mg/kg/d,0
same,"Number of Metastases, size <0.01 mm",[1]; oral 100 mg/kg/d,6
same,"Number of Metastases, size >0.01 mm",[1]; oral 100 mg/kg/d,0
same,"Number of Metastases, size 0.01-0.1 mm",[1]; oral 250 mg/kg/d,3
same,"Number of Metastases, size <0.01 mm",[1]; oral 250 mg/kg/d,9
same,"Number of Metastases, size >0.01 mm",[1]; oral 250 mg/kg/d,0
same,"Number of Metastases, size 0.01-0.1 mm",[1]; oral 500 mg/kg/d,3
same,"Number of Metastases, size <0.01 mm",[1]; oral 500 mg/kg/d,6
same,"Number of Metastases, size >0.01 mm",[1]; oral 500 mg/kg/d,1
same,inhibition of labelled thymidine incorporation into intact pig skin,[2],inhibits
same,inhibition of LTC4 production,[3],inhibit
same,inhibition of PGE2 production,[3],inhibit
same,inhibition of lysosomal enzyme release,[3],inhibit
same,"NHEK growth, ABS-background (650 nm)","[4]; 0.5 μg/ml, day 4, control .090",.085
same,"NHEK growth, ABS-background (650 nm)","[4]; 0.5 μg/ml, day 5, control .190",.115
same,"NHEK growth, ABS-background (650 nm)","[4]; 0.5 μg/ml, day 7, control .390",.190
same,"NHEK growth, ABS-background (650 nm)","[4]; 1.0 μg/ml, day 4, control .090",.040
same,"NHEK growth, ABS-background (650 nm)","[4]; 1.0 μg/ml, day 5, control .190",.050
same,"NHEK growth, ABS-background (650 nm)","[4]; 1.0 μg/ml, day 7, control .390",.120
same,"NHEK growth, ABS-background (650 nm)","[4]; 2.0 μg/ml, day 4, control .090",.005
same,"NHEK growth, ABS-background (650 nm)","[4]; 2.0 μg/ml, day 5, control .190",.010
same,"NHEK growth, ABS-background (650 nm)","[4]; 2.0 μg/ml, day 7, control .390",.050
same,inhibition at 0.5 µg/mL,"[4]; 96 h, 0.5 μg/ml, day 4",6%
same,inhibition at 1 µg/mL,"[4]; 96 h, 1.0 μg/ml, day 4",56%
same,inhibition at 2 µg/mL,"[4]; 96 h, 2.0 μg/ml, day 4",94%
same,inhibition at 0.5 µg/mL,"[4]; 120 h, 0.5 μg/ml, day 5",40%
same,inhibition at 1 µg/mL,"[4]; 120 h, 1.0 μg/ml, day 5",74%
same,inhibition at 2 µg/mL,"[4]; 120 h, 2.0 μg/ml, day 5",95%
same,inhibition at 0.5 µg/mL,"[4]; 168 h, 0.5 μg/ml, day 7",51%
same,inhibition at 1 µg/mL,"[4]; 168 h, 1.0 μg/ml, day 7",70%
same,inhibition at 2 µg/mL,"[4]; 168 h, 2.0 μg/ml, day 7",87%
same,inhibition of growth of NHEK,[4]; approximately 1.0 μg/ml,substantial inhibition
same,direct inhibition of 5-lipoxygenase,[5],no evidence of direct inhibition
same,inhibition of keratinocyte proliferation,[6],inhibits
same,3H-hypoxanthine incorporation into MDBK cells,[7]; Eagles Minimal Essential media,substantially reduced
same,"3H-Hypoxanthine Uptake, DPM","[7]; 10 min, control 87000",36000 DPM
same,"3H-Hypoxanthine Uptake, DPM","[7]; 20 min, control 140000",40000 DPM
same,"3H-Hypoxanthine Uptake, DPM","[7]; 30 min, control 190000",40000 DPM
same,inhibition at 1 µg/mL,[7]; 10 min,59%
same,inhibition at 1 µg/mL,[7]; 20 min,71%
same,inhibition at 1 µg/mL,[7]; 30 min,79%
